“Also recorded” adds a separate entry of the source. Read-outs that look alike come from different tables or passages of the source.
Assays:
[1] = in vivo; cited from earlier work
[2] = cited from earlier work
RSV = test: Indomethacin in drinking water in RSV-infected BALB/c mice (weight loss curve); assay type: in vivo
Description: Genetically altered mice having the BALB/c background were obtained from Charles Rivers Laboratories, 251 Ballardvale Street,. Wilmington, Mass. 01887-1000. Modification to the level of PGI2 was accomplished by introducing indomethacin to the BALB/c mice. Indomethacin is a drug that is used to treat arthritis and other rheumatologic conditions and inhibits the activity of both COX-1 and COX-2 such that the formation of prostanoids, specifically PGI2, are not produced. Indomethacin is given to the mice in their drinking water in order to block the cyclooxygenase enzymes in order to determine the effect of the cyclooxygenase pathway on the immune response to RSV infection. Indomethacin is commercially available from Sigma, Inc. St. Louis, Mo.
As best seen in FIG. 4, mice treated with indomethacin have a much difference weight loss curve. Within the experiment, BALB/c mice were provided water having indomethacin, 30 micrograms/ml.
Female BALB/c mice that are 8–10 weeks of age and that weigh approximately 20 grams were used to determine the amount of weight loss that results from an RSV infection. The BALB/c mice were infected with RSV strain A as described in Example 1. Subsequent to infection, the mice received water in their drinking bottles to drink during the course of an infection. On day 5, the mice started to lose weight and the peak of illness as measured by maximal weight loss occurred on day 9. […] These mice then recovered and were fully back to baseline by day 19 after infection. FIG. 3 is an example of a typical body weight curve that occurs with RSV induced illness. On the Y-axis is the body weight as a percentage of the pre-infection weight. This curve is very reproducible although factors such as the strain of the mouse and the viral load administered can alter the severity and duration of illness.

vaccinia virus = conditions: BALB/c mice; cited from earlier work
RSV strain A = test: UT-15 by subcutaneous micro-infusion pump in RSV-infected BALB/c mice (mortality, body weight); assay type: in vivo; conditions: for survival percentage: FIG. 7
Description: The genetically altered mice and control mice were anesthetized with ketamine and xylazine, as described in Peebles, et al., 2001, J. Med. Virol. 63:178–88, which is incorporated herein by reference. The mice were intranasally infected with 10^7 pfu of RSV strain A. American Type Culture Collection, Manassas, Va.
In order to insert a micro-infusion pump into a mouse, the skin of the back, slightly posterior to the scapulae will be shaved and washed with ethanol. Subcutaneous implantation is technically the easiest and least invasive procedure. The usual site for subcutaneous implantation of Azlet pumps in mice is on the back, slightly posterior to the scapulae. Pumps are commercially available at: Alzet Osmotic Pumps, Durect Corporation, P.O. Box 530, Cupertino, Calif. 95015-0530. Absorption of the compound placed in the pump by local capillaries results in systemic administration. For subcutaneous pump implantation, the following steps are performed:
A micro-infusion pump system was inserted into a mouse as previously described in Example 8. After the micro-infusion pump was in place, UT-15 was administered subcutaneously for two weeks starting on the day prior to infection. The BALB/c mice received either different concentrations of UT-15 or water only, as indicated below. BALB/c mice were infected with RSV strain A as described in Example 1. There were 8–10 mice per group. The weight of each mouse was monitored on a daily basis. The mice were put on a scale to measure their weight.
Mice having received micro-infusion pumps received infusion of either water of some concentration of UT-15 for a period of 2 weeks after starting the day prior to RSV infection. […] Also shown are the percentage of body weight for each of the animals on each given day for the other animals either receiving no UT-15 or other concentrations of UT-15.

[3] = indomethacin 30 micrograms/ml in drinking water, FIG. 4

In the case of CC#CCC(C)[C@H](O)/C=C/[C@@H]1[C@H]2C/C(=C/CCCC(=O)O)C[C@H]2C[C@H]1O (stereo partly drawn) [Iloprost], the “share of oral iloprost reaching the systemic circulation” value [1] is given as “less than 20%” and the “safety of administration to patients” value ([2]; iloprost: long-term, pulmonary hypertension patients, UT-15: patients treated for another disease) is given as “safe”.

With COc1ccc2c(c1)c(CC(=O)O)c(C)n2C(=O)c1ccc(Cl)cc1 [indomethacin] the “effect on RSV-induced illness” value (RSV; FIG. 4 legend) was “exacerbates and delays recover from RSV-induced illness”, the “day of peak illness (weight loss)” value (RSV; [3]) was 11 days and the “recovery of body weight after RSV infection” value (RSV; [3]) was “did not recover their weight”. The “mortality from vaccinia virus infection vs non-treated mice” value (vaccinia virus) was “marked increase in mortality”.

With CCCCC[C@H](O)CC[C@@H]1[C@H]2Cc3cccc(OCC(=O)O)c3C[C@H]2C[C@H]1O [UT-15] the “protection against RSV-induced mortality (percent survival)” value (RSV strain A; FIG. 7 legend and summary text, 2.0 and 20 ng/kg/min vs none) was “protects against RSV-induced mortality; also recorded: increase percentage of survival”, the “protection against RSV-induced illness (percent of body weight)” value (RSV strain A; FIG. 8 legend, 20, 30, 40 ng/kg/min vs none) was “protects against RSV-induced illness” and the “recovery period of the surviving mice vs mice without UT-15” value (RSV strain A; UT-15 2.0 ng/kg/min) was “the recovery period was quicker”. The survival percentage (RSV strain A; UT-15 2.0 ng/kg/min subcutaneous for two weeks from the day prior to infection) was “next best survival percentage”, the survival percentage (RSV strain A; UT-15 20 ng/kg/min subcutaneous for two weeks from the day prior to infection) was “best survival percentage” and the “recovery period for body weight” value (RSV strain A; UT-15 20 ng/kg/min, compared with 0, 30 and 40 ng/kg/min, FIG. 8) was “quickest recovery period for body weight”. For the same molecule, the “safety of administration to patients” value ([2]; in vivo) was “safely used”.

In the case of CCCCC[C@H](O)/C=C/[C@@H]1[C@H]2C/C(=C/CCCC(=O)O)O[C@H]2C[C@H]1O [Epoprostenol], the side effects ([2]; in vivo, iv) is listed as “flushing, headache, chest pain, sweating, flu-like symptoms, nausea, vomiting, and systemic hypotension”.

For CC(=O)Oc1ccccc1C(=O)O [aspirin], the “mortality from vaccinia virus infection vs non-treated mice” value (vaccinia virus) is listed as “marked increase in mortality”.

From patent US7132453B2, “Method of using prostacyclin to treat respiratory syncytial virus infections” (Vanderbilt University, priority 2002, dated 2006)
